The text below walks through data of PubChem BioAssay (NCI).

Among the test systems are UO-31 renal; U251 CNS; SK-OV-3 ovarian; CCRF-CEM leukemia; SF-295 CNS; OVCAR-4 ovarian; MCF7 breast; SN12C renal; A549 NSCLC.
Common to all, as to experiment: inhibition of tumour cell growth, NCI panel, 48 h

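48-hour exposure; five concentrations; linearly interpolated endpoints. GI50 = concentration required for 50% inhibition of growth. TGI is the concentration that stops growth completely.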 The source made the active and inactive calls. No stated cut-off is given here; in the data, active means GI50 below about 0.43 µM; inactive means the rest. Some results are limits rather than exact numbers.

`CC1(C)N=C(N)N=C(N)N1c1cccc(CCCCc2cccc(S(=O)(=O)F)c2)c1`: the GI50 in the test on UO-31 renal was more than 100 µM; with U251 CNS, 0.456 µM; with SK-OV-3 ovarian it was 10.9 µM; in the test with CCRF-CEM leukemia it was 0.559 µM; in the test with SF-295 CNS it was 2.45 µM; in the test on OVCAR-4 ovarian, 8.06 µM. The results for the GI50 with MCF7 breast, in the test with SN12C renal and in the test with A549 NSCLC were 0.485 µM, 0.571 µM and 0.751 µM, respectively. The TGI in the test on UO-31 renal was more than 100 µM; in the test with U251 CNS it was 36 µM; with SK-OV-3 ovarian it was more than 100 µM; in the test on CCRF-CEM leukemia, 53.4 µM; in the test on SF-295 CNS, more than 100 µM; with OVCAR-4 ovarian, more than 100 µM. The TGI in the test on MCF7 breast is 24.9 µM; in the test on SN12C renal, more than 100 µM; in the test with A549 NSCLC it was more than 100 µM.
Regarding `COC(=O)CCC(=O)C(=O)OC`, the GI50 with UO-31 renal is 15000 µM; in the test on U251 CNS, 33400 µM; in the test with SK-OV-3 ovarian, 11700 µM; in the test on CCRF-CEM leukemia it was 17800 µM; in the test with SF-295 CNS, 42000 µM; in the test on OVCAR-4 ovarian it was 65000 µM. Also, the GI50 with SN12C renal is 21500 µM; in the test with A549 NSCLC, 52900 µM. Also, the TGI in the test with UO-31 renal was 85700 µM; with SK-OV-3 ovarian it was 62000 µM; in the test on CCRF-CEM leukemia, 85500 µM; with SN12C renal, 62100 µM. Further, in the test with MCF7 breast, the result was inactive.
For `NC(=O)NNCc1ccccc1`, the TGI with UO-31 renal, in the test on U251 CNS, in the test on SK-OV-3 ovarian, with CCRF-CEM leukemia, in the test on SF-295 CNS and in the test with OVCAR-4 ovarian was more than 100 µM throughout. The TGI with MCF7 breast, with SN12C renal and with A549 NSCLC was more than 100 µM each time.
In the case of `O=C1C(Cl)=C(Nc2cccc(Cl)c2)C(=O)N1Cc1ccccc1`, the GI50 in the test with UO-31 renal was 6.94 µM; in the test on U251 CNS, 3.98 µM; in the test with SK-OV-3 ovarian, 15.7 µM; in the test on CCRF-CEM leukemia, 2.39 µM; in the test with SF-295 CNS it was 6.28 µM; in the test with OVCAR-4 ovarian it was 22.3 µM. For the same compound, the GI50 with MCF7 breast was 14.9 µM; with SN12C renal, 11.2 µM; in the test on A549 NSCLC it was 16.1 µM. In addition, the TGI is 25.8 µM in the test with UO-31 renal; 15.5 µM with U251 CNS; 35 µM in the test with SK-OV-3 ovarian; more than 100 µM in the test on CCRF-CEM leukemia; 20.1 µM with SF-295 CNS; 67.4 µM with OVCAR-4 ovarian. The TGI in the test on MCF7 breast was more than 100 µM; with SN12C renal, 25.1 µM; with A549 NSCLC, 39.9 µM.
For the compound `C=C1C(=O)O[C@H]2[C@H]1CC/C(CNC(=O)Cc1c[nH]c3ccccc13)=C\CC[C@@]1(C)O[C@@H]21`, the GI50 in the test with UO-31 renal was 6 µM; in the test on U251 CNS, 2.52 µM; in the test with SK-OV-3 ovarian, 17.6 µM; with CCRF-CEM leukemia, 0.303 µM; in the test on SF-295 CNS it was 13 µM; in the test on OVCAR-4 ovarian, 1.74 µM. For the same compound, the GI50 with MCF7 breast was 0.404 µM; with SN12C renal, 1.91 µM; in the test on A549 NSCLC, 14.9 µM. Further, the TGI with UO-31 renal was found to be 19.3 µM; in the test on U251 CNS, 16.5 µM; in the test with SK-OV-3 ovarian, 31.7 µM; with CCRF-CEM leukemia, 1.02 µM; in the test on SF-295 CNS, 26.6 µM; in the test on OVCAR-4 ovarian it was 15.7 µM. The values for the TGI with MCF7 breast, in the test on SN12C renal and with A549 NSCLC were 3.3 µM, 18.3 µM and 33.3 µM, respectively.
Consider `FC(F)(F)c1nc(N2CCCC2)ncc1-c1nnnn1-c1ccc(Cl)cc1`, for which the GI50 in the test with UO-31 renal was 16.8 µM; in the test with U251 CNS it was 33 µM; in the test with SK-OV-3 ovarian, 31.8 µM; with CCRF-CEM leukemia it was 6.71 µM; in the test on SF-295 CNS, 19 µM; in the test on OVCAR-4 ovarian, 6.7 µM. Also, the GI50 with MCF7 breast was 14.3 µM; with SN12C renal, 26.3 µM; in the test with A549 NSCLC, 13.4 µM. Moreover, the TGI in the test on UO-31 renal was more than 100 µM; in the test on U251 CNS it was more than 100 µM; in the test with SK-OV-3 ovarian it was more than 100 µM; in the test on CCRF-CEM leukemia, 45.4 µM; in the test on SF-295 CNS it was more than 100 µM; in the test with OVCAR-4 ovarian, 74.8 µM. In addition, the TGI in the test on MCF7 breast, in the test with SN12C renal and in the test on A549 NSCLC was more than 100 µM throughout.
For the compound `COc1cc2c(cc1O)CC[C@@H]1[C@@H]2CC[C@]2(C)[C@@H](NCCN(C)C)CC[C@@H]12`, the GI50 with UO-31 renal was 0.43 µM; with U251 CNS, 0.135 µM; in the test with SK-OV-3 ovarian it was 0.194 µM; in the test with CCRF-CEM leukemia, 0.156 µM; in the test with SF-295 CNS it was 0.163 µM; in the test on OVCAR-4 ovarian it was 0.339 µM. The GI50 in the test with MCF7 breast is 0.127 µM; in the test on SN12C renal it was 0.38 µM; in the test with A549 NSCLC it was 0.3 µM. The TGI in the test with UO-31 renal is 0.889 µM; with U251 CNS it was 0.458 µM; in the test with SK-OV-3 ovarian, 0.667 µM; in the test on CCRF-CEM leukemia, 0.612 µM; with SF-295 CNS, 0.61 µM; in the test with OVCAR-4 ovarian it was 0.943 µM. Further, the TGI came out at 0.514 µM with MCF7 breast, 1.48 µM in the test on SN12C renal and 0.827 µM in the test with A549 NSCLC.
Take `CCN(CC)CCOCC[C@H]1CC[C@H]2[C@@H]3[C@H](C)Cc4cc(OS(N)(=O)=O)ccc4[C@H]3CC[C@]12C`: the GI50 with UO-31 renal was 1.54 µM; in the test on U251 CNS, 1.18 µM; with SK-OV-3 ovarian, 1.49 µM; with CCRF-CEM leukemia, 1.14 µM; in the test with SF-295 CNS it was 0.626 µM; in the test on OVCAR-4 ovarian, 0.806 µM. Besides, the GI50 is 0.219 µM with MCF7 breast, 1.19 µM with SN12C renal and 1.8 µM in the test on A549 NSCLC. The TGI in the test on UO-31 renal was 3.7 µM; in the test on U251 CNS, 2.59 µM; in the test with SK-OV-3 ovarian, 3.2 µM; in the test with CCRF-CEM leukemia it was 4.34 µM; with SF-295 CNS, 2.14 µM; in the test with OVCAR-4 ovarian, 2.29 µM. Further, the TGI in the test with MCF7 breast was 2.28 µM; with SN12C renal it was 2.86 µM; in the test with A549 NSCLC, 5.58 µM.
